Measured values: US10221163B2 (priority 2015, dated 2019)

Experiments:
IMP-1 = IMP-1 (Serratia marcescens, UniProt P52699); assay: biochemical; assay type: biochemical; conditions: fluorescence assay, CCF2-FA substrate, 2 pM enzyme, 2 hours at 25° C.; read-out: IMP-1 IC50
Experimental: (§1) Enzyme Activity: Determination of IC50
(§2) The Class B enzyme activities were measured in the presence of the test inhibitor in a fluorescence assay against a commercially available substrate consisting of a cephalosporin core linking 7-hydroxycoumarin to fluorescein (CCF2-FA). […] In a 384-well microplate, the test inhibitor was incubated with the metallo-β-lactamase enzyme and the substrate for 2 hours at 25° C. […] The IC50 value was determined from semi-logarithmic plots of enzyme inhibition versus inhibitor concentration, with a curve generated using a 4-parameter fit.

NDM-1 = NDM-1 (Klebsiella pneumoniae, UniProt C7C422); assay: biochemical; assay type: biochemical; conditions: fluorescence assay, CCF2-FA substrate, 1 pM enzyme, 2 hours at 25° C.; read-out: NDM-1 IC50
Experimental: as §1, §2

[1] = test system: Escherichia coli expressing NDM-1 (CLB30005, CLB30016); assay type: cell-based; conditions: with imipenem 1 μg/ml; for Escherichia coli MITC95: NDM-1 strain, 95% inhibition of growth; for Escherichia coli expressing NDM-1 (CLB30016) MITC95: 95% inhibition of bacterial growth
Experimental: (§3) Antibiotic Potentiation Activity: Determination of Synergistic Concentration
(§4) The bacterial strains tested included the clinical strains Escherichia coli expressing NDM-1 (CLB30005, CLB30016), Serratia marcescens expressing IMP-1 (CL5741), and Klebsiella pneumoniae expressing VIM-1 (IHMA599644). Inhibitor activity was measured in the presence and absence of imipenem in a 384-well microplate.
(§5) The clinical strains CLB30016, CL5741 and IHMA599644 were grown on trypticase soy agar containing 5% sheep's blood. The bacteria on agar plates were incubated at 35° C. with humidity overnight. The following day, individual colonies from each clinical strain were picked and resuspended in 5 ml saline to attain an OD600 of […], for CLB30016, CL5741 and IHMA599644, respectively. These were further diluted 1:100 into 1.1×CAMHB and used to inoculate the test wells as described below.
(§6) Imipenem in 10 mM 3-(N-morpholino)propanesulfonic acid (MOPS, pH 7) was stored in single use aliquots at −80° C. […] On the day of the assay, 4 μl of antibiotic was added to 45 ul of bacteria followed by 1 μl of test compound and mixed by pipetting and with an orbital shaker. The concentration of antibiotic used in the assay was 1 μg/ml. Microplates were covered and incubated at 35° C. for 22 hours to 24 hours. At the end of the incubation, absorbance was determined using a spectrophotometer.

[2] = test system: Klebsiella pneumoniae expressing VIM-1 (IHMA599644); assay type: cell-based; conditions: for Klebsiella pneumoniae MITC95: VIM-1 strain IHMA599644, with imipenem 1 μg/ml, 95% inhibition of growth; for Klebsiella pneumoniae expressing VIM-1 (IHMA599644) MITC95: with imipenem 1 μg/ml, 95% inhibition of bacterial growth
Experimental: as §3, §4, §5, §6

[3] = test system: Serratia marcescens expressing IMP-1 (CL5741); assay type: cell-based; conditions: for Serratia marcescens MITC95: IMP-1 strain CL5741, with imipenem 1 μg/ml, 95% inhibition of growth; for Serratia marcescens expressing IMP-1 (CL5741) MITC95: with imipenem 1 μg/ml, 95% inhibition of bacterial growth
Experimental: as §3, §4, §5, §6

[4] = test system: Pseudomonas aeruginosa efflux+ (MB9798), IMP-1; assay type: cell-based; parameters: Concentration of metallo-β-lactamase inhibitor which restores susceptibility of efflux + (MB9798) strain to imipenem: unit not given here; conditions: C, D serine β-lactamase inhibitor closely related to relebactam; for Concentration of metallo-β-lactamase inhibitor which restores susceptibility of efflux + (MB9798) strain to imipenem: imipenem at 2 μg/mL, in the presence of a class A; for P. aeruginosa expressing IMP-1, efflux + (MB9798) MITC95: concentration restoring susceptibility to imipenem at 2 μg/mL in the presence of a class A
Text: (§7) The strain background was Pseudomonas aeruginosa PAO1.
(§8) The strain set was then used as a pair to determine the effect of metallo-β-lactamase inhibitors of Formula I on the MIC of imipenem and/or ceftazidime. A fixed concentration of antibiotic was included in standard microbroth MIC tests, usually at the CLSI (Clinical and Laboratory Standards Institute) breakpoint concentration. A fixed amount of a class A/C beta-lactamase inhibitor was also included to inhibit the resident Pseudomonas AmpC enzyme. A serial titration of the metallo-β-lactamase inhibitor was included and the concentration of metallo-β-lactamase inhibitor which restores susceptibility of the strain to the included antibiotic was recorded. That concentration of metallo-β-lactamase inhibitor was then compared between the two strains to determine the fold difference between the efflux+ (MB9798) and efflux− (MB9799) strains. This was taken as an indication of the extent to which the MBLi is subject to efflux.

[5] = test system: Pseudomonas aeruginosa efflux− (MB9799), IMP-1; assay type: cell-based; conditions: C, D serine β-lactamase inhibitor closely related to relebactam; for Concentration of metallo-β-lactamase inhibitor which restores susceptibility of efflux − (MB9799) strain to imipenem: imipenem at 2 μg/mL, in the presence of a class A; for P. aeruginosa expressing IMP-1, efflux − (MB9799) MITC95: concentration restoring susceptibility to imipenem at 2 μg/mL in the presence of a class A
Text: as §7, §8

Sequence of NDM-1 (C7C422 whole entry, looked up, species assumed): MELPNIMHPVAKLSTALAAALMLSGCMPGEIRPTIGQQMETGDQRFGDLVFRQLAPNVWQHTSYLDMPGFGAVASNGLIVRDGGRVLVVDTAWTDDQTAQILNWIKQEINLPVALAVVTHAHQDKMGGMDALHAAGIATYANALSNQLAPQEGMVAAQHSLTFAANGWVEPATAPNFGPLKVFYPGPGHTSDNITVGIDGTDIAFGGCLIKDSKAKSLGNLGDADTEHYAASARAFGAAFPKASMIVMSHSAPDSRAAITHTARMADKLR
Sequence of IMP-1 (P52699 whole entry, looked up, species assumed): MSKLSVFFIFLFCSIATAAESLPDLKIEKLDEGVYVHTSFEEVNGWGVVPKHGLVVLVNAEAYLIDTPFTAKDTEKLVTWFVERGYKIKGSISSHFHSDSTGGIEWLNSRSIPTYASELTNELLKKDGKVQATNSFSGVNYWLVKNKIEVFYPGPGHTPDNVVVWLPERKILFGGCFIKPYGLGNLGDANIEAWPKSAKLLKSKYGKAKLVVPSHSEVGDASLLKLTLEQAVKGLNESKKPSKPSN

SMILES	IC50 (IMP-1)	IC50 (NDM-1)	Escherichia coli MITC95 [1]	Klebsiella pneumoniae MITC95 [2]	Serratia marcescens MITC95 [3]	Concentration of metallo-β-lactamase inhibitor which restores susceptibility of efflux + (MB9798) strain to imipenem [4]	Concentration of metallo-β-lactamase inhibitor which restores susceptibility of efflux − (MB9799) strain to imipenem [5]	Escherichia coli expressing NDM-1 (CLB30016) MITC95 [1]	Klebsiella pneumoniae expressing VIM-1 (IHMA599644) MITC95 [2]	Serratia marcescens expressing IMP-1 (CL5741) MITC95 [3]	P. aeruginosa expressing IMP-1, efflux + (MB9798) MITC95 [4]	P. aeruginosa expressing IMP-1, efflux − (MB9799) MITC95 [5]
C[C@@H](CN)NS(=O)(=O)c1ccc(-c2cc(F)cc3[nH]c(N)nc23)c(-c2nn[nH]n2)c1S(N)(=O)=O [Example 397]	1.6 nM	0.161 nM	3.125 µM	3.125 µM	0.7813 µM	1.563	1.563	–	–	–	–	–
Nc1ccc(-c2ccc(S(=O)(=O)N[C@@H]3CCCNC3)c(S(N)(=O)=O)c2-c2nn[nH]n2)cn1 [Example 490, (R)-4-(6-aminopyridin-3-yl)-N1-(piperidin-3-yl)-3-(2H-tetrazol-5-yl)benzene-1,2-disulfonamide]	0.176 nM	0.0439 nM	0.7813 µM	3.125 µM	1.563 µM	1.563	1.563	–	–	–	–	–
CN(C)C(=O)c1ccccc1-c1ccc(S(=O)(=O)N[C@@H]2CCNC2)c(S(N)(=O)=O)c1-c1nnn[nH]1 [Example 129, (R)-N,N-dimethyl-4′-(N-(pyrrolidin-3-yl)sulfamoyl)-3′-sulfamoyl-2′-(1H-tetrazol-5-yl)-[1,1′-biphenyl]-2-carboxamide]	9.07 nM	0.279 nM	–	–	–	–	–	6.25 µM	12.5 µM	6.25 µM	12.5 µM	3.125 µM
Nc1nc2c(-c3ccc(S(=O)(=O)NCCN4CCCCC4=O)c(S(N)(=O)=O)c3-c3nnn[nH]3)cccc2s1 [Example 33, 4-(2-amino-1,3-benzothiazol-4-yl)-N1-[2-(2-oxopiperidin-1-yl)ethyl]-3-(1H-tetrazol-5-yl)benzene-1,2-disulfonamide]	0.275 nM	0.0731 nM	–	–	–	–	–	25 µM	25 µM	6.25 µM	12.5 µM	3.125 µM
NCCNS(=O)(=O)c1ccc(-c2cccc(-c3nc[nH]n3)c2)c(-c2nn[nH]n2)c1S(N)(=O)=O [Example 224, N^4-(2-aminoethyl)-2-(2H-tetrazol-5-yl)-3′-(1H-1,2,4-triazol-3-yl)-[1,1′-biphenyl]-3,4-disulfonamide]	0.412 nM	0.142 nM	–	–	–	–	–	1.563 µM	3.125 µM	1.563 µM	1.563 µM	0.7813 µM
NC[C@@H](O)CNS(=O)(=O)c1ccc(-c2ccnc(N)c2)c(-c2nn[nH]n2)c1S(N)(=O)=O [Example 419]	1.51 nM	0.496 nM	0.1953 µM	1.563 µM	0.7813 µM	1.563	0.7813	–	–	–	–	–
NCCNS(=O)(=O)c1ccc(-c2cccc3[nH]c(C4CNC4)nc23)c(-c2nn[nH]n2)c1S(N)(=O)=O [Example 443, N1-(2-aminoethyl)-4-(2-(azetidin-3-yl)-1H-benzo[d]imidazol-4-yl)-3-(2H-tetrazol-5-yl)benzene-1,2-disulfonamide]	0.79 nM	0.0814 nM	0.7813 µM	1.172 µM	1.563 µM	0.7813	0.7813	–	–	–	–	–
NC[C@H](N)CNS(=O)(=O)c1ccc(-c2cccn3ccnc23)c(-c2nn[nH]n2)c1S(N)(=O)=O [Example 374, (S)-N1-(2,3-diaminopropyl)-4-(imidazo[1,2-a]pyridin-8-yl)-3-(2H-tetrazol-5-yl)benzene-1,2-disulfonamide]	0.278 nM	0.157 nM	0.7813 µM	6.25 µM	3.125 µM	–	–	–	–	–	1.563 µM	1.563 µM
Nc1nc2c(-c3ccc(S(=O)(=O)N[C@@H]4CCNC4)c(S(N)(=O)=O)c3-c3nnn[nH]3)cc(F)cc2[nH]1 [Example 181, (R)-4-(2-amino-6-fluoro-1H-benzo[d]imidazol-4-yl)-N^1-(pyrrolidin-3-yl)-3-(1H-tetrazol-5-yl)benzene-1,2-disulfonamide]	0.273 nM	0.0372 nM	–	–	–	–	–	0.3906 µM	1.563 µM	0.7813 µM	0.3906 µM	0.7813 µM
Nc1nc2c(-c3ccc(S(=O)(=O)NCC4(O)CNC4)c(S(N)(=O)=O)c3-c3nn[nH]n3)cccc2s1 [Example 387, 4-(2-amino-1,3-benzothiazol-4-yl)-N^1-[(3-hydroxyazetidin-3-yl)methyl]-3-(2H-tetrazol-5-yl)benzene-1,2-disulfonamide]	0.244 nM	0.0646 nM	1.563 µM	6.25 µM	1.563 µM	–	–	–	–	–	0.7813 µM	1.563 µM
